PMC5916772 (ACS combinatorial science, 2017)

Legend:
[1] = system: polyclonal anti-1′Nic antiserum; assay: Competition ELISA of polyclonal anti-1′Nic antiserum on 1′Nic-BSA coated plates; assay type: binding, mice; conditions: pooled polyclonal anti-1′Nic antiserum; free HPs as competitors
[2] = system: monoclonal anti-1′Nic antibody, mAb-5F3; assay type: binding, mice

HP-IC50/Nic-IC50 ratio, binding activity to antiserum [1]	SMILES	HP-IC50/Nic-IC50 ([2]; IC50 ratio of HP-IC50 to IC50 of free nicotine on the same ELISA plate)	IC50 ([2]; read-out: HP-IC50, free HPs as competitors, 1′Nic-BSA coated plates) [nM]
close to or larger than 1.0	O=C(CCCN1CCC[C@H]1c1cccnc1)NC1CCC(C(=O)O)CC1 (stereo partly drawn) [HP 2, 4-(4-((S)-2-(Pyridin-3-yl)pyrrolidin-1-yl)butanamido)-cyclohexanecarboxylic Acid]		
	CN1CCC[C@H]1c1cccnc1 [free Nic, nicotine]	1.0	1410 ± 250
